According to patent US20220332836A1, “A METHOD FOR PREVENTING HUMAN VIRUS ASSOCIATED DISORDERS IN PATIENTS” (NOVARTIS AG, priority 2019, published 2022):

Legend:
[1] = test system: EBV-seronegative EBV-B cell/T cell co-cultures; assay: EBV-B cell/T cell co-culture, EBV-seronegative donors; type: cell-based, human
[2] = test system: EBV-seropositive EBV-B cell/T cell co-cultures; assay: EBV-B cell/T cell co-culture, EBV-seropositive donors
[3] = test system: PBMC incubated with EBV supernatant; assay: EBV regression assay with PBMC; type: cell-based, human
Procedure: Buffy coats from six healthy volunteers (18-001 to 18-006) were received from Blutspendezentrum Bern. Peripheral blood mononuclear cells (PBMC) were isolated using LeucoSep tubes following manufacturer's instructions, counted with TC20 and adjusted in cell culture medium (Medium, buffers and reagents). All conditions (see Table 3-2) were run in five replicates in 96-well U-bottom plates and contained 2×10^5 cells/well. PBMC were incubated for 10-15 minutes at 37° C. before adding cell culture medium containing EBV-supernatant and transferrin (see Medium, buffers and reagents). […] Cell pellets were stained and analyzed by flow cytometry (FACS staining procedure).
In FIG. 1, the gating strategy is shown.

human CD40 = target: T1, human CD40 (human, UniProt P25942 21-193, limits assumed); assay: method not stated
T1 construct: also called tumor necrosis factor receptor superfamily member 5
T1 sequence (P25942 21-193 limits assumed): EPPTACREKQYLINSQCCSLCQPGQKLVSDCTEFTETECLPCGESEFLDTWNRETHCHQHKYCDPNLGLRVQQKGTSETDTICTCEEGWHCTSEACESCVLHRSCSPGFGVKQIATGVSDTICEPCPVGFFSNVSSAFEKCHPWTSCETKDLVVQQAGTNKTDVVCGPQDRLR

[4] = test system: NK cell-depleted PBMC cultures; assay: EBV regression assay, complete or NK cell-depleted PBMC; type: cell-based, human; details: 14 days
Source text: (§1) FIG. 16 provides CD3^+ T cell counts from the NK cell-depleted PBMC regression assay after 14 days of culture measured by flow cytometry. Antibodies (in μg/mL) and CsA (in μM) were given in combination with EBV supernatants (except the negative control=medium w/o EBV). Dotted horizontal line was set to the condition ‘medium+EBV’. Data are shown as mean+SEM (n=4).
as §1, with “17” for “16”, “CD19^+ B cell counts from the PBMC regression assay after 14 days of culture measured by flow cytometry. Antibodies (in μg/mL) and CsA (in μM) were given in combination with EBV supernatants (except the negative control=medium w/o EBV). Dotted horizontal line was set to the condition ‘medium+EBV’. Data are shown as mean+SEM (n=4); and CD19^+ B” for “CD3^+ T”
All conditions except ‘medium w/o EBV’ were incubated with EBV supernatant and respective compound or antibodies. […] Looking at the CD19+ B cell proliferation (FIG. 3), there was an obvious increase in CD19+ B cell counts when PBMC were incubated with EBV supernatant compared to PBMC cultured with medium only (medium w/o EBV). […]

[5] = 10-200 μg/mL, priming, recall, priming and recall, 11 days
[6] = 14 days, CsA 0.1, 1 μM, Belatacept 10, 50 μg/mL, CFZ533, hIgG1 10-200 μg/mL, vs medium+EBV

## Belatacept: CTLA4-Ig fusion protein; blocks CD80/CD86 and thereby inhibits T cell costimulation
[1]; 10, 50, 100 and 200 μg/mL
  CD4+ T cell proliferation, differences between the four doses: no evident differences
[1]; 10-200 μg/mL, all three conditions
  CD4+ T cell proliferation: reduced
[1]; [5]
  CD3+ T cell proliferation: reduced
[1]; 10 and 50 μg/mL, recall only and priming and recall
  CD8+ T cell proliferation: only a reducing effect
[1]; 100 and 200 μg/mL, priming and recall condition
  CD3+ T cell proliferation: only a reducing effect
[1]; 100 and 200 μg/mL, priming or recall only condition
  CD3+ T cell proliferation: only minor
[1]; 100 and 200 μg/mL, priming phase only
  CD8+ T cell proliferation: increased
[1]; all three conditions
  CD3+ T cell proliferation, 10 and 50 μg/mL versus 100 and 200 μg/mL: slightly stronger but not significant suppression pattern
[2]; [5]
  CD3+ T cell proliferation: reduced
  CD4+ T cell proliferation: reduced
[2]; 100 and 200 μg/mL
  CD3+ T cell proliferation: only an reducing effect on the T cell proliferation at the ‘priming and recall’ phase
[2]; 100 and 200 μg/mL, priming and recall phase
  CD4+ T cell proliferation: robust reducing effect
[2]; all three conditions
  CD3+ T cell proliferation, 10 and 50 μg/mL versus 100 and 200 μg/mL: slightly stronger but not significant suppression pattern
  CD4+ T cell proliferation, 10 and 50 μg/mL versus 100 and 200 μg/mL: slightly stronger but not significant suppression pattern
[2]; co-culture system, EBV-B cells sero-positive and sero-negative
  EBV-mediated T cell proliferation and IFNγ secretion in presence of EBV-B cells: reduced
[3]; [6]
  CD3+ T cell counts: to a lesser degree than with CsA
  CD19+ B cell counts: increase
[3]; EBV regression assay
  T cell activity (resulting in over-growth of in vitro immortalized cells): reduced

B1: mAb1 (antibody, human IgG1, kappa, N297A, V domains shown)
VH: QVQLVESGGGVVQPGRSLRLSCAASGFTFSSYGMHWVRQAPGKGLEWVAVISYEESNRYHADSVKGRFTISRDNSKITLYLQMNSLRTEDTAVYYCARDGGIAAPGPDYWGQGTLVTVSS
VL: DIVMTQSPLSLTVTPGEPASISCRSSQSLLYSNGYNYLDWYLQKPGQSPQVLISLGSNRASGVPDRFSGSGSGTDFTLKISRVEAEDVGVYYCMQARQTPFTFGPGTKVDIRR
notes: also called CFZ533; Iscalimab
Human CD40
  Kd: 0.3 nM

B2: HCD122: a depleting CD40 mAb as positive control (antibody, chains of the INN, looked up, V domains shown)
VH: QVQLVESGGGVVQPGRSLRLSCAASGFTFSSYGMHWVRQAPGKGLEWVAVISYEESNRYHADSVKGRFTISRDNSKITLYLQMNSLRTEDTAVYYCARDGGIAAPGPDYWGQGTLVTVSS
VL: DIVMTQSPLSLTVTPGEPASISCRSSQSLLYSNGYNYLDWYLQKPGQSPQVLISLGSNRASGVPDRFSGSGSGTDFTLKISRVEAEDVGVYYCMQARQTPFTFGPGTKVDIR
[4]
  CD19+ B cell counts: did deplete B cells
